Source: patent US10759826B2, “15β-substituted estrone derivatives as selective inhibitors of 17β-hydroxysteroid-dehydrogenases, method of preparation and use thereof” (USTAV ORGANICKE CHEMIE A BIOCHEMIE AV CR, V.V.I., priority 2016, dated 2020)

Tests used:
[1] = molecular target: T1, human 17βHSD type 1 (Homo sapiens, UniProt P14061); experiment: Inhibition of recombinant 17βHSD type 1, tritium-labeled substrate conversion; format: biochemical; details: for inhibition at 0.1 µM: 0.1 μmol · l^−1 test substance; for inhibition at 0.1 µM / inhibition at 1 µM: read-out: % of inhibition of human 17βHSD1; for inhibition at 1 µM: 1 μmol · l^−1 test substance; for IC50: read-out: 17βHSD1 IC50
T1 construct: made in house; expressing system suspended in buffer, not purified
T1 sequence (P14061 1-328): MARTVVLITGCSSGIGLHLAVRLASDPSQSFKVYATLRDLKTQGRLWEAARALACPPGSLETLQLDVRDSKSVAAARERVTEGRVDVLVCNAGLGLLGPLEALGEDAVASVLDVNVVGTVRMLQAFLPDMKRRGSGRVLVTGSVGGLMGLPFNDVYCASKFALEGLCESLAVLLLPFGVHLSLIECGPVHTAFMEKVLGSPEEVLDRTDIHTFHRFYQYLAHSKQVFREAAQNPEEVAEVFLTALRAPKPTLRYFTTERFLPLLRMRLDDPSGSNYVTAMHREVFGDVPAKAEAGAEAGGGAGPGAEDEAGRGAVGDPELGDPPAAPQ
Experimental: (§1) The inhibitory activity of the test substances was determined for individual isoenzymes from the 17βHSD family, specifically these were the types 1, 2, 3, 4, 5 and 7. Escherichia coli and mammalian cells expression systems were used for recombinant expression of individual isozymes of human 17βHSD. Only in the case of 17HSD5 the enzyme was partially purified and supernatant obtained by centrifugation of the bacterial lysate was used for testing. Systems expressing specific 17βHSD type were suspended in a reaction buffer and incubated with tritium-labeled substrates and respective cofactors at 37° C. in two parallel tests: the control arrangement (DMSO without the inhibitor) and the test arrangement (DMSO with the inhibitor). DMSO serves as a negative control in this case. After 20-30% of the substrate was converted by the activity of the enzyme to the product in a control test, both tests were terminated. Substrate and product from the test arrangement were isolated by SPE (solid phase extraction), and then separated by reverse phase HPLC. Substrate conversion was determined by integration of the signals of the substrate and product, and was expressed in %. For the purposes of the subsequent calculation of enzyme inhibition, the conversion of the control test was designated as 0% inhibition. All tests were performed in triplicates. IC50 values were subsequently determined by a standard method using the “One Ligand Binding” model of SigmaPlot kinetics module (Schustera et. al. J. Ster. Biochem. Mol. Biol. 2011, 125, 148; Möller et. al. Biioorg. Med. Chem. Lett. 2009, 19, 6740; Möller et. al. PLoS One, 2010, 5, 6, e10969).

[2] = molecular target: T2, human 17βHSD type 5 (Homo sapiens, UniProt P42330); experiment: Inhibition of recombinant 17βHSD type 5, tritium-labeled substrate conversion; format: biochemical; details: 1 μmol · l^−1 test substance
T2 construct: made in house; host or cells: bacteria (Escherichia coli); supernatant of the lysate
T2 sequence (P42330 1-323): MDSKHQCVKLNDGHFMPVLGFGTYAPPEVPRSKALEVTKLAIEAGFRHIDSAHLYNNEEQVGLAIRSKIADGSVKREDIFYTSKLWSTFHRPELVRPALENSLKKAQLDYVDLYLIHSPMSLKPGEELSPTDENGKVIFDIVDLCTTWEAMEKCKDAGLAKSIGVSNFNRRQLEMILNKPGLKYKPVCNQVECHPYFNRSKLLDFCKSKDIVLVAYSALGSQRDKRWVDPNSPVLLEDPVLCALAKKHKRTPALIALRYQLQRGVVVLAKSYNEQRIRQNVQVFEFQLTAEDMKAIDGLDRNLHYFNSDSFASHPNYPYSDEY
Experimental: as §1

[3] = molecular target: T3, estrogen receptor α (ERα) (Homo sapiens, UniProt P03372); experiment: ERα luciferase reporter assay in U2OS cells; format: cell-based; details: for ER antagonism in words: testing range 10 μmol·l^−1 to 1 nmol·l^−1
T3 construct: expressed in transfected cells
T3 sequence (P03372 1-595): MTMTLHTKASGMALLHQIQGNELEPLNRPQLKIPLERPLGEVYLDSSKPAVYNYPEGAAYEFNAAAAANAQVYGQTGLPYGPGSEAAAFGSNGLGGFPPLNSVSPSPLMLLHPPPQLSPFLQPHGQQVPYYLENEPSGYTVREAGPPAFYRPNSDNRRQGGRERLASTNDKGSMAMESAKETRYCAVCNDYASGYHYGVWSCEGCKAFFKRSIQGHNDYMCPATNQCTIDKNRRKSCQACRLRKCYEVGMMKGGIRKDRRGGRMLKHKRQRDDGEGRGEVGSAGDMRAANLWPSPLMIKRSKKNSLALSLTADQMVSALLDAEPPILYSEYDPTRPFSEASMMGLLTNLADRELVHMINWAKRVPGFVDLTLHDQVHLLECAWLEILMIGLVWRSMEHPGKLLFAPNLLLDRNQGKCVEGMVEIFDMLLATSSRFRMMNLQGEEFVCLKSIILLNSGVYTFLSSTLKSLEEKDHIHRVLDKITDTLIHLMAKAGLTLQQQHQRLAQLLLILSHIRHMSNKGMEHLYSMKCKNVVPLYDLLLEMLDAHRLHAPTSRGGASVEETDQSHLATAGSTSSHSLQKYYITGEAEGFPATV

[4] = test system: CEM; experiment: MTT cytotoxicity assay, CEM; format: cell-based; details: Homo sapiens, CCRF-CEM
Text: (§2) Compounds 5, 6, 7, 9, 14 and 15 were used for evaluation of antitumor activity. MTT cytotoxicity assay was used in vitro on cell lines derived from normal tissues and from tumors. Specifically, these were the K562 line (human myeloid leukemia), K562-Tax (human myeloid leukemia resistant to taxol and overexpressing PgP protein for multidrug resistance), CEM (T-lymphoblastic leukemia), CEM-DNR bulk (T-lymphoblastic leukemia resistant doxorubicin, lacking the expression of the target gene for inhibitors of topoisomerase II alpha), A549 line (human lung adenocarcinoma), HCT116p53 wt (human colon cancer), HCT116p53−/− (human colon cancer, mutant p53), U2OS line of human osteosarcoma and two fibroblast lines MRC5 and BJ as examples of non-tumor cells. Expression characteristics, profiles of susceptibility to classical antitumor drugs and methodology of the MTT cytotoxicity assay were repeatedly published (e.g. Noskova et al. Neoplasma 2002, 49, 418; S̆arek et. al. J. Med. Chem. 2003, 46, 25, 5402).

[5] = test system: CEM-DNR-bulk; experiment: MTT cytotoxicity assay, CEM-DNR-bulk; format: cell-based
Text: as §2

[6] = test system: K562; experiment: MTT cytotoxicity assay, K562; format: cell-based; details: Homo sapiens
Text: as §2

[7] = test system: K562-Tax; experiment: MTT cytotoxicity assay, K562-Tax; format: cell-based; details: Homo sapiens
Text: as §2

[8] = test system: A549; experiment: MTT cytotoxicity assay, A549; format: cell-based; details: Homo sapiens
Text: as §2

[9] = test system: HCT116p53 wt; experiment: MTT cytotoxicity assay, HCT116p53 wt; format: cell-based; details: Homo sapiens
Text: as §2

[10] = test system: HCT116p53-/-; experiment: MTT cytotoxicity assay, HCT116p53-/-; format: cell-based; details: Homo sapiens
Text: as §2

[11] = test system: U2OS; experiment: MTT cytotoxicity assay, U2OS; format: cell-based; details: Homo sapiens
Text: as §2

[12] = test system: BJ; experiment: MTT cytotoxicity assay, BJ fibroblasts; format: cell-based; details: Homo sapiens, non-tumor fibroblasts
Text: as §2

[13] = test system: MRCS; experiment: MTT cytotoxicity assay, MRC5 fibroblasts; format: cell-based; details: Homo sapiens, Fibroblast, non-tumor fibroblasts
Text: as §2

[14] = molecular target: T4, human 17βHSD1 (Homo sapiens, UniProt P14061); experiment: 17βHSD inhibition in CHO cells transfected with human 17βHSD1, E1 in supernatant; format: cell-based; design: expressed in transfected cells; details: 10 μmol·l^−1
T4 sequence (P14061 1-328): T1 sequence (P14061 1-328)
Experimental: (§3) For this experiment, non-cytotoxic concentrations of estrone derivative (10 μmol·l^−1) were used. E1 levels were determined by an immuno-enzymatic assay.

[15] = molecular target: T4, human 17βHSD1; experiment: 17βHSD inhibition in MCF-7 cells transfected with human 17βHSD1, E1 in supernatant; format: cell-based; design: expressed in transfected cells; host or cells: MCF-7; details: 10 μmol·l^−1
Experimental: as §3

| Structure (SMILES) | inhibition at 0.1 µM [1] | inhibition at 1 µM [1] | IC50 [1] | % of inhibition of human 17βHSD5 [2] | melting point | further results |
| --- | --- | --- | --- | --- | --- | --- |
| C=C[C@@H]1CC(=O)[C@@]2(C)CC[C@@H]3c4ccc(O)cc4CC[C@H]3[C@H]12 [Compound 2a, 3-Hydroxy-15β-vinyl-estra-1,3,5(10)-trien-17-one] | 79% | 95% | 0.017 µM | 7% | 162 °C | isoenzyme selectivity in words ([1]; among 17βHSD types 1, 2, 3, 4, 5, 7): inhibits exclusively the 17βHSD1 isoenzyme; estrogenic effect in words [3]: partial estrogenicity |
| C[C@]12CC[C@@H]3c4ccc(O)cc4CC[C@H]3[C@@H]1[C@H](CCc1ccccc1)CC2=O [Compound 3, 15β-Phenethyl-3-hydroxy-estra-1,3,5(10)-trien-17-one] | 66% | 83% | 0.05 µM | 60% | – | ER antagonism in words [3]: ER antagonist |
| C[C@]12CC[C@@H]3c4ccc(O)cc4CC[C@H]3[C@@H]1[C@H](CCc1ccc(C(F)(F)F)cc1)CC2=O [Compound 4, 15β-(4-(Trifluoromethyl)phenethyl)-3-hydroxy-estra-1,3,5(10)-trien-17-one] | 68% | 91% | 0.042 µM | 89% | 168 °C | ER antagonism in words [3]: ER antagonist |
| C[C@]12CC[C@@H]3c4ccc(O)cc4CC[C@H]3[C@@H]1[C@H](CCc1ccc3ccccc3c1)CC2=O [Compound 8, 3-Hydroxy-15β-(2-(naphtalen-2-yl)ethyl)-estra-1,3,5(10)-trien-17-one] | 77% | 92% | 0.018 µM | 76% | 201 °C | – |
| COc1cccc(CC[C@@H]2CC(=O)[C@@]3(C)CC[C@@H]4c5ccc(O)cc5CC[C@H]4[C@H]23)c1 [Compound 10, 3-Hydroxy-15β-(3-methoxyphenethyl)-estra-1,3,5(10)-trien-17-one] | 72% | 87% | – | – | 178 °C | – |
| COc1ccc(CC[C@@H]2CC(=O)[C@@]3(C)CC[C@@H]4c5ccc(O)cc5CC[C@H]4[C@H]23)cc1OC [Compound 11, 3-Hydroxy-15β-(3,4-dimethoxyphenethyl)-estra-1,3,5(10)-trien-17-one] | 36% | 67% | – | – | – | – |
| CC(C)(C)Oc1ccc(CC[C@@H]2CC(=O)[C@@]3(C)CC[C@@H]4c5ccc(O)cc5CC[C@H]4[C@H]23)cc1 [Compound 13, 15β-(4-t-Butoxyphenethyl)-3-hydroxy-estra-1,3,5(10)-trien-17-one] | 62% | 80% | – | – | – | – |
| C[C@]12CC[C@@H]3c4ccc(O)cc4CC[C@H]3[C@@H]1[C@H](CCc1ccc(O)cc1)CC2=O [Compound 14, 15β-(4-Hydroxyphenethyl)-3-hydroxy-estra-1,3,5(10)-trien-17-one] | 72% | 97% | – | 42% | – | IC50 [4]: 25.8 µM; IC50 [5]: 30.8 µM; IC50 [6]: 22.6 µM; IC50 [7]: 18.9 µM; IC50 [8]: 41.3 µM; IC50 [9]: 28.2 µM; IC50 [10]: 32.6 µM; IC50 [11]: 44.6 µM; IC50 [12]: ≥ 50 µM; IC50 [13]: 50 µM; E1 in supernatant, CHO ([14]; 8 hr.): 3179 pg/mL; E1 in supernatant, CHO ([14]; 24 hr.): 1054 pg/mL; E1 in supernatant, MCF-7 ([15]; 8 hr.): 4298 pg/mL; E1 in supernatant, MCF-7 ([15]; 24 hr.): 2626 pg/mL |
| C[C@]12CC[C@@H]3c4ccc(O)cc4CC[C@H]3[C@@H]1[C@H](CCc1cc(F)c(F)c(F)c1)CC2=O [Compound 16, 15β-(3,4,5-Trifluorophenethyl)-3-hydroxy-estra-1,3,5(10)-trien-17-one] | 67% | 95% | 0.036 µM | 79% | 182 °C | – |
| C[C@]12CC[C@@H]3c4ccc(O)cc4CC[C@H]3[C@@H]1[C@H](CCc1c(F)c(F)c(F)c(F)c1F)CC2=O [Compound 17, 15β-(2,3,4,5,6-Pentafluorophenethyl)-3-hydroxy-estra-1,3,5(10)-trien-17-one] | 56% | 90% | – | 31. % | 151 °C | – |
